Results taken from PMC11202169, “A Novel Fluorescence-Based Microplate Assay for High-Throughput Screening of hSULT1As Inhibitors” (Biosensors, 2024).
Read-outs that look alike come from different tables or passages of the source.

Tests used:
Assay type in all cases: biochemical
hSULT1A3 = molecular target: T1, hSULT1A3 (Homo sapiens, UniProt P0DMM9); assay: Fluorescence-based microplate inhibition assay, hSULT1A3-catalyzed HN-241 4-O-sulfation; details: for activity at 10 µM: read-out: Residue activity (%) hSULT1A3
T1 construct: 6-histidine tag (N); TEV site (N); made in house; host or cells: Escherichia coli BL21 (DE3), pET29a(+)

hSULT1A1 = molecular target: T2, hSULT1A1 (Homo sapiens, UniProt P50225); assay: Fluorescence-based microplate inhibition assay, hSULT1A1-catalyzed HN-241 4-O-sulfation; details: for activity at 1 µM: read-out: Residue activity (%) hSULT1A1;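 for all read-outs here: reaction started with 200 µM PAPS at 37 °C, fluorescence read continuously (Ex 350 nm, Em 450 nm), activity expressed relative to DMSO-only control without inhibitor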
T2 construct: 6-histidine tag (N); TEV site (N); made in house; host or cells: Escherichia coli BL21 (DE3), pET29a(+)

hSULT1A2 = molecular target: T3, hSULT1A2 (Homo sapiens, UniProt P50226); assay: Fluorescence-based microplate inhibition assay, hSULT1A2-catalyzed HN-241 4-O-sulfation; details: for remaining activity at 10 µM: 0.25 h, read-out: Residue activity (%) hSULT1A2
T3 construct: 6-histidine tag (N); TEV site (N); made in house; host or cells: Escherichia coli BL21 (DE3), pET29a(+)

[1] = test compound 10 μM, HN-241 10 μM, 15 min
[2] = test compound 1 μM, HN-241 1 μM, 15 min
[3] = test compound 10 μM, HN-241 5 μM, 15 min

T1 sequence (P0DMM9 whole entry): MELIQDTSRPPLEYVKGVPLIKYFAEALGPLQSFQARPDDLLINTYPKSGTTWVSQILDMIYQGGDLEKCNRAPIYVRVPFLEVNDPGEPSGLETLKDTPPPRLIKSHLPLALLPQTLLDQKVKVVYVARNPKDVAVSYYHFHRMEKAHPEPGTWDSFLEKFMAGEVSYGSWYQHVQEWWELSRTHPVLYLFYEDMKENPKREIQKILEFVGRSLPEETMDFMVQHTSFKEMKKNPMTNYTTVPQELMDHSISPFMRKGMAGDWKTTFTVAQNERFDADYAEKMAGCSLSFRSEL
T2 sequence (P50225 whole entry): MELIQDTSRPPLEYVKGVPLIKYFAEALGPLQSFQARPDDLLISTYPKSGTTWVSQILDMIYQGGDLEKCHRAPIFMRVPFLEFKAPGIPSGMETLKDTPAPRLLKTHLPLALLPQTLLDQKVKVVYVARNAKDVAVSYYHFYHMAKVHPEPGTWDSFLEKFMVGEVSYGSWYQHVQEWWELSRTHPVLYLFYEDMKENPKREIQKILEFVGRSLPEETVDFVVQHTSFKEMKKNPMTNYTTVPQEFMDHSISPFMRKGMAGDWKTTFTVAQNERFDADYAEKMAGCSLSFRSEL
T3 sequence (P50226 whole entry): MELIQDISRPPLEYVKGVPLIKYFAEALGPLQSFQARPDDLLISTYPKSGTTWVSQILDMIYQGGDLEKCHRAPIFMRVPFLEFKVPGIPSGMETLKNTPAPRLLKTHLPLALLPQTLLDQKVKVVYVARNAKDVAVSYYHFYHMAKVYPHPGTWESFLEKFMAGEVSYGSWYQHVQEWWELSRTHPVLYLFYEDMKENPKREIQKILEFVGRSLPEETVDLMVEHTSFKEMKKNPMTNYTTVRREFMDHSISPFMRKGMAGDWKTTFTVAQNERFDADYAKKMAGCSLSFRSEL

Compound	activity at 10 µM (hSULT1A3; [1])	activity at 1 µM (hSULT1A1; [2])	remaining activity at 10 µM (hSULT1A2; [3])	Residue activity (%) hSULT1A3 (hSULT1A3; [1])	Residue activity (%) hSULT1A1 (hSULT1A1; [2])	Residue activity (%) hSULT1A2 (hSULT1A2; [3])	also measured
O=C1C[C@@H](c2ccc(O[C@@H]3O[C@H](CO)[C@@H](O)[C@H](O)[C@H]3O)cc2)Oc2cc(O)ccc21 [Liquiritin]	100%	100%	95.1%	–	–	–	–
C[C@@H]1[C@H]2[C@H](O[C@@H]3O[C@H](CO)[C@@H](O)[C@H](O)[C@H]3O)OC=C(C(=O)O)[C@H]2C[C@@H]1O [Loganic acid]	119%	128%	98.6%	–	–	–	–
COc1cc(OC)c(CCC(=O)c2ccc(O)cc2)c(OC)c1 [Loureirin B]	–	–	–	71.91%	5.84%	6.16%	–
COC(=O)/C=C/c1ccc(O)c(O)c1 [Methyl caffeate acid]	–	–	–	44.99%	9.01%	12.99%	–
Cc1c(O)c(C)c2c(c1O)C(=O)[C@H](Cc1ccc3c(c1)OCO3)CO2 [Methylophiopogonanone A]	–	–	–	79.90%	28.87%	0.52%	–
O=c1c(O)c(-c2ccc(O)cc2O)oc2cc(O)cc(O)c12 [Morin]	55.7%	50.7%	4.73%	–	–	–	–
CC(C)=CCc1c(-c2ccc(O)cc2O)oc2c(CC=C(C)C)c(O)cc(O)c2c1=O [Mulberrin]	–	–	–	70.86%	53.37%	143.65%	–
O=c1c(O)c(-c2cc(O)c(O)c(O)c2)oc2cc(O)cc(O)c12 [Myricetin]	39.8%	0.08%	4.43%	–	–	–	–
COc1cc(-c2oc3cc(O)cc(O)c3c(=O)c2O[C@@H]2O[C@H](CO[C@@H]3O[C@@H](C)[C@H](O)[C@@H](O)[C@H]3O)[C@@H](O)[C@H](O)[C@H]2O)ccc1O [Narcissoside]	–	–	–	60.08%	99.20%	86.78%	–
O=C(/C=C/c1ccc(O[C@@H]2O[C@H](CO)[C@@H](O)[C@H](O)[C@H]2O)cc1)c1ccc(O)cc1O [Neoisoliquiritigenin]	–	–	–	108.00%	91.36%	84.48%	–
CC1(C)CC[C@]2(C(=O)O)CC[C@]3(C)C(=CC[C@@H]4[C@@]5(C)CC[C@H](O)C(C)(C)[C@@H]5CC[C@]43C)[C@@H]2C1 [Oleanolic acid]	114%	127%	101%	–	–	–	–
CCCCCCCCCCCCCCCC(=O)O [Palmitic acid]	113%	93.1%	84.8%	–	–	–	–
COc1ccc(-c2cc(=O)c3c(O)c(OC)c(O)cc3o2)cc1 [Pectolinarigenin]	1.34%	1.12%	0%	–	–	–	IC50 (hSULT1A3; hSULT1A3-catalyzed HN-241 4-O-sulfation): 4360 ± 252 nM; IC50 (hSULT1A1; hSULT1A1-catalyzed HN-241 4-O-sulfation): 9.52 ± 0.39 nM; IC50 (hSULT1A2; hSULT1A2-catalyzed HN-241 4-O-sulfation): 87.2 ± 3.16 nM
COc1cc([C@@H]2c3cc4c(cc3[C@H](O)[C@H]3COC(=O)[C@H]23)OCO4)cc(OC)c1OC [Podophyllotoxin]	–	–	–	–	–	–	activity at 10 µM (hSULT1A3): 111%; activity at 1 µM (hSULT1A1): 110%; remaining activity at 10 µM (hSULT1A2): 88.9%
O=c1c(O)c(-c2ccc(O)c(O)c2)oc2cc(O)cc(O)c12 [Quercetin, reference compound]	39.9%	0%	0.1%	–	–	–	–
C[C@]12CC[C@H](O)C[C@H]1CC[C@@H]1[C@@H]2CC[C@]2(C)[C@@H](c3ccc(=O)oc3)C[C@H]3O[C@]132 [Resibufogenin]	–	–	–	–	–	–	activity at 10 µM (hSULT1A3): 113%; activity at 1 µM (hSULT1A1): 127%; remaining activity at 10 µM (hSULT1A2): 99.2%
O=C(O)c1cc(O)c2c(c1)C(=O)c1cccc(O)c1C2=O [Rhein]	96.9%	59.4%	0.83%	–	–	–	–
C=C(C)[C@H]1Cc2c(ccc3c2O[C@@H]2COc4cc(OC)c(OC)cc4[C@@H]2C3=O)O1 [Rotenone]	–	–	–	–	–	–	activity at 10 µM (hSULT1A3): 106%; activity at 1 µM (hSULT1A1): 109%; remaining activity at 10 µM (hSULT1A2): 102%
COc1cc2c(c(OC)c1OC)-c1c(cc(OC)c(OC)c1OC)C[C@](C)(O)[C@@H](C)C2 [Schisandrin]	–	–	–	123.25%	129.29%	102.92%	–

Compound	activity at 10 µM (hSULT1A3; [1])	activity at 1 µM (hSULT1A1; [2])	remaining activity at 10 µM (hSULT1A2; [3])	Residue activity (%) hSULT1A3 (hSULT1A3; [1])	Residue activity (%) hSULT1A1 (hSULT1A1; [2])	Residue activity (%) hSULT1A2 (hSULT1A2; [3])	also measured
C/C=C(/C)C(=O)O[C@H]1c2cc(OC)c(OC)c(OC)c2-c2c(cc3c(c2OC)OCO3)C[C@H](C)[C@]1(C)O [Schisantherin B]	108%	109%	109%	–	–	–	–
COc1ccc(-c2cc(=O)c3c(O)cc(O)c(-c4cc(-c5cc(=O)c6c(O)cc(OC)cc6o5)ccc4OC)c3o2)cc1 [Sciadopitysin]	–	–	–	62.24%	27.69%	2.03%	–
CC(C)=CC[C@@H](O)C1=CC(=O)c2c(O)ccc(O)c2C1=O [Shikonin]	61%	64.5%	18.6%	–	–	–	–
COC1=C[C@@H]2[C@@H]3Cc4ccc(OC)c(O)c4[C@]2(CCN3C)CC1=O [Sinomenine]	110%	103%	103%	–	–	–	–
O=C1c2c(O)cc(O)cc2OC(c2ccc(O)c(O)c2)C1O (stereo not drawn) [Taxifolin]	59.7%	3.26%	41.7%	–	–	–	–
COc1c(O)cc2occ(-c3ccc(O)cc3)c(=O)c2c1O [Tectorigenin]	86.8%	4.17%	4.26%	–	–	–	–
O=C(O[C@@H]1[C@@H](O)[C@H](Oc2cc(O)c(C(=O)CCc3ccccc3)c(O)c2)O[C@@H]2COC(=O)c3cc(O)c(O)c(O)c3-c3c(cc(O)c(O)c3O)C(=O)O[C@@H]12)c1cc(O)c(O)c(O)c1 [Thonningianin A]	17.6%	12%	3.29%	–	–	–	–
CC(C)[C@]12O[C@H]1[C@@H]1O[C@]13[C@]1(O[C@H]1C[C@H]1C4=C(CC[C@@]13C)C(=O)OC4)[C@@H]2O [Triptolide]	110%	109%	119%	–	–	–	–
O=c1cc(-c2ccc(O)cc2)oc2c([C@@H]3O[C@H](CO)[C@@H](O)[C@H](O)[C@H]3O)c(O)cc(O)c12 [Vitexin]	108%	102%	115%	–	–	–	–
Cc1c2[n+](cc3cc4c(cc13)OCO4)CCc1cc3c(cc1-2)OCO3 [Worenine]	–	–	–	125.56%	101.91%	92.89%	–
C/C1=C\CC(C)(C)/C=C/C(=O)/C(C)=C/CC1 [Zerumbone]	108%	102%	113%	–	–	–	–
CC(C)=CCc1cc(-c2oc3cc(O)cc(O)c3c(=O)c2O)ccc1O [iso-Licoflavonol]	62.1%	3.31%	0.03%	–	–	–	–
O=C(/C=C/c1ccccc1)c1ccccc1 [trans-Chalcone]	–	–	–	116.88%	71.86%	91.40%	–
Ginkgolic acid	–	–	–	66.66%	12.05%	13.44%	–
Gomisin A	–	–	–	122.78%	129.03%	97.44%	–
Hydroxysafflor yellow A	–	–	–	99.76%	97.09%	100.46%	–
Myricitrin	–	–	–	110.49%	96.68%	84.45%	–
Sennosides	–	–	–	19.21%	26.92%	3.06%	–
